The values that follow are results of earlier work, collected in patent US20200000760A1, “METHOD FOR TREATING OVERACTIVE BLADDERS AND A DEVICE FOR STORAGE AND ADMINISTRATION OF TOPICAL OXYBUTYNIN COMPOSITIONS” (Allergan Sales, LLC, priority 2009, published 2020).

For data set [1] the following is noted: transdermal administration compared to oral administration.
For data set [2] the following is noted: transdermal administration compared to oral administration. The source holds these as a separate data set.

As for `CCN(CC)CC#CCOC(=O)C(O)(c1ccccc1)C1CCCCC1` (centres unmarked) [oxybutynin], the “oxybutynin:desethyloxybutynin ratio in the plasma” value in data set [1] was “reduced”. For the same compound, the adverse events entry in data set [2] is recorded as “less adverse events”.
